# Source: US20230233537A1, “Compositions and Kits of Parts Comprising N,N-Dimethyltryptamine and Harmine and Their Use in Therapy” (University of Zürich, priority 2020, published 2023)
# Assays:
# [1] = local tolerability on nasal or oral mucosa (burning sensation); conditions: for burning sensation on nasal application: intranasal
# [2] = aqueous solubility of DMT and harmine forms; conditions: for solubility: water, 25 °C
# hepatic enzyme CYP2D6 = hepatic enzyme CYP2D6 (Homo sapiens, UniProt P10635); conditions: cited from earlier work
# hepatic enzyme CYP2D6, sequence (P10635 whole entry): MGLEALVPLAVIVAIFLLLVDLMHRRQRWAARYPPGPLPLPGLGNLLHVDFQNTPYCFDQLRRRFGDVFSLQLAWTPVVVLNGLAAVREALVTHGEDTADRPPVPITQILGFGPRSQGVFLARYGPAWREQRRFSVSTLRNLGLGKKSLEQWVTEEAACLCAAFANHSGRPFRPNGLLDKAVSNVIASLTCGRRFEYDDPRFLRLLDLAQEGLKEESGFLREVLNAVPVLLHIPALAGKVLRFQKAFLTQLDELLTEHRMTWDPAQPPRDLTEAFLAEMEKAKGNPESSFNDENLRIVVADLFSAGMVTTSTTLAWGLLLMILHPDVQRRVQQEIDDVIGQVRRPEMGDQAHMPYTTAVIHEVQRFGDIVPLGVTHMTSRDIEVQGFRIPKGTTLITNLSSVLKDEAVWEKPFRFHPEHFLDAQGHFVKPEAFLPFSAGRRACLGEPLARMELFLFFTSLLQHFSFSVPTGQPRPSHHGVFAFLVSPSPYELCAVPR
# [3] = combined intranasal/buccal study (parenteral pharmahuasca): DMT and harmine concentrations in plasma; conditions: for variation of peak plasma concentrations (cmax), extensive vs. poor metabolizers, factor: 150 mg buccal harmine HCl, up to 50 mg incremental intranasal DMT fumarate; for bioavailability (area under the curve; AUC) compared to oral administration: DMT fumarate intranasal, harmine HCl buccal
# [4] = molecular target: T1, monoamine oxidase A (MAO-A) (Homo sapiens, UniProt P21397); conditions: cited from earlier work
# T1 sequence (P21397 1-527): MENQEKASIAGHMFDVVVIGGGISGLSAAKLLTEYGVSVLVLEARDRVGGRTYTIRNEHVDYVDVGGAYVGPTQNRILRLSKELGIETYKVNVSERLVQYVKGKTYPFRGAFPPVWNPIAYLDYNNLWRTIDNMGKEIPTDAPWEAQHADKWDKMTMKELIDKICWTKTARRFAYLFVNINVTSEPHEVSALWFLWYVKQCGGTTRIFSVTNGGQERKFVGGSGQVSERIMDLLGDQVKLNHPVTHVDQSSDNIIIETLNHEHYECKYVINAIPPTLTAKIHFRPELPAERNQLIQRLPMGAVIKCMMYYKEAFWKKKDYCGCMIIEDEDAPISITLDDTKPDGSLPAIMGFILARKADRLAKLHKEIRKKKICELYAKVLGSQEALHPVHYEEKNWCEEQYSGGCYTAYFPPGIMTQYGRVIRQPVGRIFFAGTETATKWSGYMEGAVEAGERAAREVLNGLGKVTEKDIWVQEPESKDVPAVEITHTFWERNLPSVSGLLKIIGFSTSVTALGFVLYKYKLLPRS
# [5] = peroral pharmahuasca study: DMT and harmine concentrations in plasma; conditions: male, human, oral
# [6] = molecular target: T2, monoamine oxidase B (MAO-B) (Homo sapiens, UniProt P27338); conditions: cited from earlier work
# T2 sequence (P27338 1-520): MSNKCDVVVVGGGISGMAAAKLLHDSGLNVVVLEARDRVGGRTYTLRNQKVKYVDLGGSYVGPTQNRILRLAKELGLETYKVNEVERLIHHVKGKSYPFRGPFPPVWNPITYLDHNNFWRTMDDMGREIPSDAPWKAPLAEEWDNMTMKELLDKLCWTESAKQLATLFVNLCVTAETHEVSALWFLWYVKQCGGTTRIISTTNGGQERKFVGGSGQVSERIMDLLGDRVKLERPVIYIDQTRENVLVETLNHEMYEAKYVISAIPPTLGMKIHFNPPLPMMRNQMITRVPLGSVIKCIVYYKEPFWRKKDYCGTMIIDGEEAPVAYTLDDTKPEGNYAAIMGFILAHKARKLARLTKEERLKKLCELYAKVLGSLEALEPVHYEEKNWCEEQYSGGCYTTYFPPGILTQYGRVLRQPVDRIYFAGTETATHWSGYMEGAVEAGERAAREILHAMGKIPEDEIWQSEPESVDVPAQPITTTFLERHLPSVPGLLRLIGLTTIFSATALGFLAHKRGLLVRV
# [7] = buccal / transmucosal absorption of DMT forms; conditions: in vivo
compound,measurement,setting,value
CC(=O)O.COc1ccc2c(c1)[nH]c1c(C)nccc12 [harmine acetate],burning sensation on nasal application,[1],intense burning sensation
same,solubility,[2],≤ 35 mg/mL
COc1ccc2c(c1)[nH]c1c(C)nccc12.O=S(=O)(O)O [harmine sulfate],burning sensation on nasal application,[1],intense burning sensation
same,solubility,[2],≤ 35 mg/mL
COc1ccc2c(c1)[nH]c1c(C)nccc12.O=C(O)/C=C/C(=O)O [harmine fumarate],burning sensation on nasal application,[1],intense burning sensation
same,solubility,[2],≤ 35 mg/mL
"COc1ccc2c(c1)[nH]c1c(C)nccc12 [harmine, 7-Methoxy-1-methyl-9H-pyrido[3,4-b]indol]",degradation by CYP2D6,hepatic enzyme CYP2D6,mainly degraded
same,solubility (in words),[2],very low
same,"variation of peak plasma concentrations (cmax), extensive vs. poor metabolizers, factor",[3],~3.2
same,inhibition of MAO-A,[4],reversibly inhibits
same,Tmax,[5],1 to 4.5 h
same,inhibition of MAO-B,[6],does not inhibit
COc1ccc2c(c1)[nH]c1c(C)nccc12.O=C(O)CC(O)(CC(=O)O)C(=O)O [harmine citrate],burning sensation on nasal application,[1],intense burning sensation
same,solubility,[2],≤ 35 mg/mL
"COc1ccc2c(c1)[nH]c1c(C)nccc12.Cl [harmine HCl, Harmine hydrochloride]",burning sensation on nasal application,[1],intense burning sensation
same,solubility,[2],≤ 35 mg/mL
same,bioavailability (area under the curve; AUC) compared to oral administration,[3],substantially higher
"CN(C)CCc1c[nH]c2ccccc12 [DMT, N,N-Dimethyltryptamine]",burning sensation when administered buccally,"[1]; buccal, basic corrosion of the oral mucosa",burning sensation
same,"variation of peak plasma concentrations (cmax), extensive vs. poor metabolizers, factor",[3],~2.3
"CN(C)CCc1c[nH]c2ccccc12.O=C(O)/C=C/C(=O)O [DMT fumarate, N,N-dimethyltryptamine fumarate]",solubility (in words),[2],high
same,solubility,[2],> 35 mg/mL
same,bioavailability (area under the curve; AUC) compared to oral administration,[3],substantially higher
same,transmucosal absorption,[7],efficient
